# Measured values taken from patent US9663514B2 (Takeda Pharmaceutical Company Limited, priority 2011, dated 2017).
# Target: T1, SYK (Homo sapiens, UniProt P43405)
# T1 construct: The SYK kinase domain (residues 356-635) is amplified via PCR; made in house; host or cells: Sf9 insect cells (baculovirus, pFastBac1)
# Test: SYK inhibition: in vitro assay of SYK-mediated phosphorylation of FAM-labeled substrate (Caliper LC-3000)
# Assay type: biochemical
# Details: SYK kinase domain (residues 356-635); 2.4 nM SYK and 45 μM ATP, 3 μM 5FAM-KKKKEEIYFFFG-NH2, RT 60 min, pH 7.3; pIC50 = −log(IC50), IC50 molar
# Procedure: The ability of compounds to inhibit SYK activity may be assessed using a variety of methods, including in vitro and in vivo assays. The following in vitro assay measures a test compound's ability to inhibit SYK-mediated phosphorylation of a FAM-labeled SYK-specific substrate (5FAM-KKKKEEIYFFFG-NH2).
# SYK protein is prepared from cDNA encoding human spleen tyrosine kinase and is expressed in insect cells using a baculovirus expression vector. The cDNA (IMAGE: 3542895) is purchased from Open Biosystems. The SYK kinase domain (residues 356-635) is amplified via PCR and cloned into plasmid pFastBacl (Invitrogen) at BamHI/XbaI sites. Recombinant plasmid encoding Met-Ala-Lys-SYK(356-635)-HHHHHH is sequenced and transformed into E. coli DH10Bac strain. The recombinant bacmid DNA is isolated and transfected into Sf9 insect cells. Recombinant virus is harvested 72 h after transfection. High titer viral stock is prepared by infecting Sf9 cells at a multiplicity of infection (MOI) of approximately 0.01. A suspension of Sf9 cells (10 L) is infected with recombinant virus (MOI=5) and is incubated in a Wave Bioreactor (GE-Healthcare) for 48 h. The cells are harvested and stored at −80° C.
# To purify the expressed protein, the frozen Sf9 cells (10 L) are broken into small (<1 cm) particles and suspended in a lysis buffer (300 mL) containing 20 mM Tris (pH 7.6), 0.25 mM TCEP, 100 mM NaCl, 5% glycerol and a protease inhibitor. The suspension is stirred at RT until completely thawed, lysed an additional 2-4 min on a rotary blade homogenizer, and then centrifuged at 4200 g for 1 h. Following centrifugation, the supernatant is poured through cheese cloth and combined with a nickel chelating resin (Probond Resin™, Invitrogen) which is pre-equilibrated in a wash buffer containing 10 mM Tris (pH 7.6), 0.25 mM TCEP, 300 mM NaCl, 5% glycerol, and 20 mM imidazole. The mixture is agitated for 3 h in a cold room and then centrifuged at 900 g for 10 min. The resin is dispersed in wash buffer (50 mL), centrifuged for 10 min at 900 g, re-dispersed in a small amount of wash buffer (5 mL), and then pour into a disposable Poly-Prep chromatography column, through which wash buffer is passed by gravity until no protein is observed in coomassie buffer (about 120 mL of wash buffer). An elution buffer (30 mL) containing 10 mM HEPES (pH 7.4), 150 mM NaCl, 10% glycerol, 5 mM DTT, and 400 mM imidazole is used to elute the SYK protein from the resin. The eluate is concentrated (5 mL) and further purified on a Superdex 200 column (1.2 mL/min for 160 min, 10 mM HEPES (pH 7.4), 10 mM NaCl, 10 mM MgCl, 0.1 mM EDTA, and 0.25 mM TCEP). The chromatographed fractions are run on SDS-PAGE and the requisite fractions are pooled and concentrated. Final delivery buffer is 10 mM HEPES (pH 7.4), 10 mM Methione, 150 mM NaCl, 10% glycerol, 5 mM DTT.
# SYK inhibition is determined using a black 384 well plate format in buffer containing 50 mM HEPES, 10 mM NaCl, 10 mM MgCl2, 0.2 mM EDTA, 0.01% EDA (Brij®35), 1 mM DTT, and 0.1 mg/ml BSA at pH 7.3. Each test compound is prepared in DMSO using 2-fold serial dilutions for 11 data points, which are added to the buffer so that each dilution contains 3% DMSO. To each well is added 2 μL of 3 μM SFAM-KKKKEEIYFFFG-NH2 (in buffer), 2 μL of diluted test compound (3% DMSO in buffer), and 2 μL of 2.4 nM SYK and 45 μM ATP (in buffer). The reaction mixture is incubated at RT for 60 min, and quenched by adding 50 mM Hepes, 30 mM EDTA, 0.1% Triton X-100 (pH 7.3). To quantify the fluorescent-labeled substrate and product following reaction, the test plate is loaded on a Caliper LC-3000, which measures percent of conversion by microfluidic-based separation. Corresponding IC50 values are calculated by non-linear curve fitting of the compound concentrations and percent of inhibition to the standard IC50 equation and reported as pIC50, i.e., −log(IC50), where IC50 is molar concentration.
compound,measurement,value
"N[C@H]1COCC[C@H]1Nc1nc(CCc2ccc(Cl)cc2)c2c(c1F)CNC2=O [Example 49, 6-((3R,4R)-3-Aminotetrahydro-2H-pyran-4-ylamino)-4-(4-chlorophenethyl)-7-fluoro-1H-pyrrolo[3,4-c]pyridin-3(2H)-one]",IC50,63.1 nM
"N[C@H]1CCCC[C@H]1Nc1nc(/C=C/c2ccc(Cl)cc2)c2c(c1F)CNC2=O [Example 50, 6-((1R,2S)-2-Aminocyclohexylamino)-4-(4-chlorostyryl)-7-fluoro-1H-pyrrolo[3,4-c]pyridin-3(2H)-one]",IC50,2 nM
N[C@H]1COCC[C@H]1Nc1nc(/C=C/c2ccc(Cl)cc2)c2c(c1F)CNC2=O [Example 51],IC50,2 nM
"C[C@H]1NC(=O)c2c(-c3cnn4ccc(F)cc34)nc(N[C@@H]3CCCC[C@@H]3N)c(F)c21 [Example 52, (R)-6-(((1R,2S)-2-Aminocyclohexyl)amino)-7-fluoro-4-(5-fluoropyrazolo[1,5-a]pyridin-3-yl)-1-methyl-1H-pyrrolo[3,4-c]pyridin-3(2H)-one]",IC50,39.8 nM
"C[C@@H]1NC(=O)c2c(-c3cnn4ccc(F)cc34)nc(N[C@@H]3CCCC[C@@H]3N)c(F)c21 [Example 53, (S)-6-(((1R,2S)-2-Aminocyclohexyl)amino)-7-fluoro-4-(5-fluoropyrazolo[1,5-a]pyridin-3-yl)-1-methyl-1H-pyrrolo[3,4-c]pyridin-3(2H)-one]",IC50,398 nM
"Cc1ccn2ncc(-c3nc(N[C@@H]4CCCC[C@@H]4N)c(F)c4c3C(=O)N[C@@H]4C)c2c1 [Example 54, (R)-6-(((1R,2S)-2-Aminocyclohexyl)amino)-7-fluoro-1-methyl-4-(5-methylpyrazolo[1,5-a]pyridin-3-yl)-1H-pyrrolo[3,4-c]pyridin-3(2H)-one]",IC50,50.1 nM
"Cc1ccn2ncc(-c3nc(N[C@@H]4CCCC[C@@H]4N)c(F)c4c3C(=O)N[C@H]4C)c2c1 [Example 55, (S)-6-(((1R,2S)-2-Aminocyclohexyl)amino)-7-fluoro-1-methyl-4-(5-methylpyrazolo[1,5-a]pyridin-3-yl)-1H-pyrrolo[3,4-c]pyridin-3(2H)-one]",IC50,251 nM
"Cc1cc(-c2nc(N[C@@H]3CCOC[C@@H]3N)c(F)c3c2C(=O)N[C@@H]3C)sn1 [Example 56, (R)-6-(((3R,4R)-3-Aminotetrahydro-2H-pyran-4-yl)amino)-7-fluoro-1-methyl-4-(3-methylisothiazol-5-yl)-1H-pyrrolo[3,4-c]pyridin-3(2H)-one]",IC50,15.8 nM
"Cc1cc(-c2nc(N[C@@H]3CCOC[C@@H]3N)c(F)c3c2C(=O)N[C@H]3C)sn1 [Example 57, (S)-6-(((3R,4R)-3-Aminotetrahydro-2H-pyran-4-yl)amino)-7-fluoro-1-methyl-4-(3-methylisothiazol-5-yl)-1H-pyrrolo[3,4-c]pyridin-3(2H)-one]",IC50,100 nM
"Cc1ccn2ncc(-c3nc(N[C@@H]4CCOC[C@@H]4N)c(F)c4c3C(=O)NC4)c2c1 [Example 58, 6-(((3R,4R)-3-Aminotetrahydro-2H-pyran-4-yl)amino)-7-fluoro-4-(5-methylpyrazolo[1,5-a]pyridin-3-yl)-1H-pyrrolo[3,4-c]pyridin-3 (2H)-one]",IC50,12.6 nM
"Cc1ccn2ncc(-c3nc(N[C@@H]4CCCC[C@@H]4N)c(F)c4c3C(=O)NC4)c2c1 [Example 59, 6-(((1R,2S)-2-Aminocyclohexyl)amino)-7-fluoro-4-(5-methylpyrazolo[1,5-a]pyridin-3-yl)-1H-pyrrolo[3,4-c]pyridin-3(2H)-one]",IC50,2.51 nM
